Measured values taken from the supplement of paper PMC11061612.

Key:
Test in all cases: Bliss excess, mean over the matrix (fraction); higher = more synergy
A375 (Melanoma) = system: A375 (Melanoma)
Method in brief: (§1)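 Cell lines grown in DMEM/F12 or RPMI with 10% FBS were plated in 1536-well plates and held 24 hours at 37°C, 5% CO2 before 72 hours of exposure to two-drug dose matrices, with DMSO typically at 0.2%. CellTiter-Glo 2.0 luminescence gave viability, which was converted to inhibition. Vehicle wells were set to 0 and blank wells to 1. Combination Emax is the second-highest inhibition in the matrix, and Bliss excess is the observed combination effect minus the expected EA + EB − EA·EB, where EA and EB are the single-agent effects.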

[1] = system: BT-474 (Breast Carcinoma)
Method in brief: as §1

C32 (Melanoma) = system: C32 (Melanoma)
Method in brief: as §1

[2] = system: CAL-85-1 (Breast Carcinoma)
Method in brief: as §1

[3] = system: COR-L105 (Lung Adenocarcinoma)
Method in brief: as §1

DK-MG (Glioblastoma) = system: DK-MG (Glioblastoma)
Method in brief: as §1

HT-144 (Melanoma) = system: HT-144 (Melanoma)
Method in brief: as §1

[4] = system: IGROV-1 (Ovarian Carcinoma)
Method in brief: as §1

[5] = system: KNS-62 (Squamous Cell Lung Carcinoma)
Method in brief: as §1

[6] = system: L-363 (Plasma Cell Myeloma)
Method in brief: as §1

[7] = system: MDA-MB-175-VII (Breast Carcinoma)
Method in brief: as §1

MG-63 (Osteosarcoma) = system: MG-63 (Osteosarcoma)
Method in brief: as §1

[8] = system: NCI-H2023 (Non-Small Cell Lung Carcinoma)
Method in brief: as §1

[9] = system: NCI-H2170 (Squamous Cell Lung Carcinoma)
Method in brief: as §1

NCI-H2452 (Mesothelioma) = system: NCI-H2452 (Mesothelioma)
Method in brief: as §1

[10] = system: OCI-M1 (Acute Myeloid Leukemia)
Method in brief: as §1

[11] = system: RS4-11 (B-Lymphoblastic Leukemia)
Method in brief: as §1

[12] = system: SBC-5 (Small Cell Lung Carcinoma)
Method in brief: as §1

SK-N-DZ (Neuroblastoma) = system: SK-N-DZ (Neuroblastoma)
Method in brief: as §1

[13] = system: TK (B-Cell Non-Hodgkin's Lymphoma)
Method in brief: as §1

Row | SMILES | Bliss excess (A375 (Melanoma)) | Bliss excess [1] | Bliss excess (C32 (Melanoma)) | Bliss excess [2] | Bliss excess [3] | Bliss excess (DK-MG (Glioblastoma)) | Bliss excess (HT-144 (Melanoma)) | Bliss excess [4] | Bliss excess [5] | Bliss excess [6] | Bliss excess [7] | Bliss excess (MG-63 (Osteosarcoma)) | Bliss excess [8] | Bliss excess [9] | Bliss excess (NCI-H2452 (Mesothelioma)) | Bliss excess [10] | Bliss excess [11] | Bliss excess [12] | Bliss excess (SK-N-DZ (Neuroblastoma)) | Bliss excess [13]
1 | COc1cccc(OCCCN)c1-c1cc(Nc2cnc(C#N)cn2)n[nH]1 [Prexasertib] + CN(C)CCCOc1ccc(-c2ccc3ncc4c(c3c2)n(C2CCOCC2)c(=O)n4C)cn1 [AZD0156] (first compound max 1 µM, 7x7, partner max 1 µM) | 0.0098 | 0.0023 | 0.009 | -0.0157 | -0.0428 | -0.0104 | -0.0135 | -0.0283 | 0.0357 | -0.039 | -0.0173 | 0.0072 | -0.0373 | 0.0156 | -0.0554 | -0.0504 | -0.0548 | -0.0086 | 0.0108 | -0.0412
2 | COc1cccc(OCCCN)c1-c1cc(Nc2cnc(C#N)cn2)n[nH]1 [Prexasertib] + C[C@@H]1COCCN1C2=NC(=NC(=C2)C3(CC3)[S@](=N)(=O)C)C4=C5C=CNC5=NC=C4 [AZD6738] (first compound max 1 µM, 7x7, partner max 10 µM) | 0.0067 | -0.0233 | -0.0529 | 0.05 | -0.0425 | 0.0073 | -0.0217 | -0.0567 | 0.0035 | -0.0104 | -0.0016 | 0.0234 | 0.0108 | -0.0461 | -0.0061 | -0.0504 | -0.0225 | -0.0272 | 0.008 | -0.083
3 | COc1cccc(OCCCN)c1-c1cc(Nc2cnc(C#N)cn2)n[nH]1 [Prexasertib] + Cc1cc2ncnn2cc1Nc1ncc2c(n1)n(C1CCOCC1)c(=O)n2C [AZD7648] (first compound max 1 µM, 7x7, partner max 10 µM) | 0.0029 | -0.0188 | -0.004 | 0.0382 | -0.0549 | 0.0253 | -0.0061 | -0.0264 | -0.0225 | -0.0437 | -0.0328 | -0.0128 | -0.027 | -0.0074 | -0.0623 | -0.0483 | -0.0159 | -0.0116 | -0.0049 | -0.0477
4 | COc1cccc(OCCCN)c1-c1cc(Nc2cnc(C#N)cn2)n[nH]1 [Prexasertib] + O=C(c1cc(Cc2n[nH]c(=O)c3ccccc23)ccc1F)N1CCN(C(=O)C2CC2)CC1 [Olaparib] (first compound max 1 µM, 7x7, partner max 10 µM) | -0.0101 | -0.037 | -0.0459 | -0.0209 | -0.0135 | 0.0193 | -0.0264 | -0.111 | -0.0637 | -0.0157 | -0.0407 | -0.0745 | -0.0213 | -0.106 | -0.0874 | -0.0322 | -0.0025 | -0.0376 | -0.0511 | -0.0837
5 | CCc1c2c(nc3ccc(O)cc13)-c1cc3c(c(=O)n1C2)COC(=O)[C@]3(O)CC [SN-38] + CN(C)CCCOc1ccc(-c2ccc3ncc4c(c3c2)n(C2CCOCC2)c(=O)n4C)cn1 [AZD0156] (first compound max 0.3 µM, 7x7, partner max 1 µM) | 0.0168 | -0.047 | 0.0537 | -0.0349 | -0.0799 | -0.0007 | -0.0219 | -0.0101 | -0.0557 | 0.0206 | -0.0043 | -0.0166 | -0.0017 | 0.0296 | -0.0197 | 0.0128 | -0.0347 | 0.0245 | 0.0604 | 0.0322
6 | Cn1cnc2c(F)c(Nc3ccc(Br)cc3Cl)c(C(=O)NOCCO)cc21 [Selumetinib] + C=CCn1c(=O)c2cnc(Nc3ccc(N4CCN(C)CC4)cc3)nc2n1-c1cccc(C(C)(C)O)n1 [AZD1775] (first compound max 10 µM, partner max 1 µM) | -0.0187 | -0.0466 | -0.0036 | -0.063 | 0.0203 | -0.0548 | -0.0127 | -0.0444 | -0.0251 | -0.0042 | -0.0005 | -0.0327 | -0.0578 | -0.0838 | -0.0288 | 0 | -0.0443 | -0.022 | -0.022 | -0.0478
7 | Cn1cnc2c(F)c(Nc3ccc(Br)cc3Cl)c(C(=O)NOCCO)cc21 [Selumetinib] + CC(C)n1c(=O)n(C)c2cnc3cc(F)c(-c4ccc(OCCCN5CCCCC5)nc4)cc3c21 [AZD1390] (first compound max 10 µM, 7x7, partner max 0.3 µM) | -0.0271 | -0.0469 | -0.0244 | -0.0039 | 0.0019 | 0.0063 | -0.0653 | -0.0204 | -0.0513 | -0.0252 | -0.0235 | -0.0037 | -0.0292 | -0.0384 | -0.0732 | 0.0164 | -0.0245 | -0.0404 | -0.0207 | -0.0134
8 | Cn1cnc2c(F)c(Nc3ccc(Br)cc3Cl)c(C(=O)NOCCO)cc21 [Selumetinib] + CCN(CCO)CCCOc1ccc2c(Nc3cc(CC(=O)Nc4cccc(F)c4)[nH]n3)ncnc2c1 [AZD2811] (first compound max 10 µM, 7x7, partner max 1 µM) | -0.0274 | -0.0419 | 0.0124 | 0.0353 | 0.0147 | -0.0736 | 0.0172 | -0.021 | -0.0104 | -0.0194 | 0.0109 | -0.0494 | -0.0294 | -0.0566 | -0.0726 | 0.0927 | -0.0367 | -0.0253 | -0.0764 | 0.0002
